We go through 20 molecules from PubChem BioAssay (NCI).

Each structure is given as a SMILES string. Where “and” joins values, the source holds several entries; their conditions need not be identical. Identical values can stand only once.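 In this assay, cells in 96-well plates receive the compound at five concentrations for 48 hours. Endpoints are linearly interpolated between the surrounding concentrations. GI50 = concentration required for 50% inhibition of growth. TGI is the concentration that stops growth completely.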

What all share (assay): DTP human tumour cell line panel, 48 h
The test system of test [1] is BT-549 breast.
For test [2], the system named is SW-620 colon.
In test [3] the test system is HT29 colon.
Test [4] relates to HOP-92 NSCLC.
The test system of test [5] is NCI-H23 lung.
For test [6], the system named is RXF 393 renal.
Test [7] has as its system HCC-2998 colon.
Test [8] relates to ACHN renal.
For test [9], the system named is SF-268 CNS.
For test [10], the system named is TK-10 renal.
The test system of test [11] is 786-0 renal.
For test [12], the system named is UO-31 renal.
Test [13] deals with SF-295 CNS.
Test [14] has as its system UACC-62 melanoma.

As a reminder, the TGI is the concentration at which net growth stops. For the molecule `COC(=O)c1sc2ncc3c(c2c1N)CC(C)CC3` (centres undefined), the TGI in test [1], in test [2], in [3], in test [4], in [5] and in test [6] was more than 100 µM throughout. For the same molecule, the TGI in test [7], in test [8], in test [9], in test [10], in test [11] and in [12] was more than 100 µM in each case. Further, the TGI in test [13] and in [14] was more than 100 µM throughout.

As to `CC1(C)[C@@H]2C[C@H]1c1cnc(-c3ccccn3)cc1[C@H]2C(O)[C@@H]1c2cc(-c3ccccn3)ncc2[C@H]2C[C@@H]1C2(C)C` (some centres undefined), the concentration for total growth inhibition (TGI) in [1] came out at 3.8 µM; in [2] it was 47.1 µM; in test [3] it was 3.57 µM; in test [4], 21.8 µM; in [5], 2.79 µM; in [6] it was 1.62 µM. The TGI is 20.8 µM in test [7]; 1.54 µM in test [8]; 16.6 µM in [9]; more than 100 µM in test [10]; 4.69 µM in [11]; 0.445 µM in test [12]. For the same molecule, the TGI was 11.4 µM in [13] and 7.66 µM in [14].

In the case of `CC1(C)OC(CCO)CN1C(=O)OCc1ccccc1` (centres undefined), the TGI in [1], in test [2], in [4], in test [5], in test [6] and in test [7] was more than 100 µM throughout. The TGI in [8], in test [10], in [11], in test [12], in [13] and in [14] was more than 100 µM throughout.

On to `COc1cc2nc(-c3c(F)cccc3F)n(Cc3c(F)cccc3F)c2cc1Cc1c(F)cccc1F`, for which the TGI in test [1] is more than 100 µM; in test [2] it was more than 100 µM; in test [3], more than 100 µM; in test [4], more than 30.8 µM; in test [5] it was more than 100 µM; in test [6], more than 28.9 µM. In addition, the TGI in test [7], in [8], in [9], in test [10], in [11] and in [12] was more than 100 µM each time. Moreover, the TGI in [13] and in test [14] was more than 100 µM each time.

In the case of `O=[N+]([O-])c1ccc2nc3c(nc2c1)-c1c2ccccc2cc2cccc-3c12`, the TGI was 17.9 µM in [1]; more than 100 µM in test [2]; more than 100 µM in [3]; 58 µM in test [4]; 24.5 µM in test [5]; 63.6 µM in [6]. Also, the total growth inhibition concentration (TGI) is more than 100 µM in test [7]; more than 100 µM in test [9]; more than 100 µM in test [10]; more than 100 µM in [11]; more than 70.9 µM in [12]; 59.5 µM in test [13]. For the same molecule, the TGI in test [14] stood at 39.2 µM.

In general, GI50 refers to the concentration giving 50% growth inhibition. Turning to `COCC(=O)OC1CCn2c1nc1c2C(=O)C(C)=C(NC(C)=O)C1=O` (centres undefined), the TGI in [1] is 24.4 µM; in [2] it was 19.8 µM; in [3], 29.5 µM; in test [4], 2.95 µM and 4.62 µM; in [5] it was 22.5 µM; in [6], 5.9 µM and 7.55 µM. For the same molecule, the TGI in test [7] is 28.7 µM; in [8], 19.5 µM; in test [9], 9 µM and 22.4 µM; in [10], 34.5 µM; in test [11] it was 18.4 µM; in test [12], 26.2 µM. In addition, the TGI was 31.7 µM in test [13]; 4.16 µM and 7.52 µM in test [14]. For the same molecule, the GI50 is 3.43 µM in test [2]; 1.38 µM in [4]; 3.23 µM in [5]; 3.07 µM in test [9]; 2.08 µM in test [14].

With `N/C(CSCCSC/C(N)=N/O)=N\O`, the TGI in [1], in [2], in test [3], in test [4], in test [5] and in test [6] was more than 100 µM in each case. Besides, the TGI in test [7], in test [8], in [9], in test [10], in [11] and in test [12] was more than 100 µM throughout. The TGI in [14] was more than 100 µM.

Regarding `C=C1CC=CC(C)(C)C1C/C=C(\C)C(O)CBr` (centres undefined), the TGI in test [1] is more than 100 µM; in test [2], 97.4 µM; in test [3], more than 100 µM; in test [4], more than 100 µM; in test [5] it was more than 100 µM; in [6], more than 100 µM. Moreover, the TGI in test [7], in test [8], in [9], in [10], in test [11] and in test [12] was more than 100 µM in each case. The concentration for total growth inhibition (TGI) in test [13] and in test [14] was more than 100 µM throughout.

Consider `COC(=O)C(CCSC)NC(=O)CSc1nnc(COc2ccc(Cl)cc2)n1-c1ccccc1` (centres undefined), for which the TGI in test [1] is 37.4 µM; in test [2], 49.7 µM; in test [3] it was 34.7 µM; in test [4], 34.6 µM; in test [5], 34.9 µM; in test [6], 35.4 µM. The TGI in test [7] turned out to be 18.2 µM; in test [8] it was 32.1 µM; in test [9], 34.5 µM; in test [10], 33.3 µM; in test [11], 30 µM; in test [12] it was 13.7 µM. Moreover, the figures for the TGI in test [13] and in [14] were 32.3 µM and 32.7 µM, respectively.

Take `CCOC(=O)Cc1nn2c(=O)cc(C)nc2s1`: the TGI in test [1], in test [2], in test [3], in [4], in [5] and in test [6] was more than 100 µM throughout. In addition, the TGI in test [7], in [8], in [9], in test [10], in [11] and in [12] was more than 100 µM in each case. Besides, the TGI in [13] and in [14] was more than 100 µM each time.

Regarding `Brc1ccc2c(c1)-c1nc3c(cc1CC2)CCc1ccc(Br)cc1-3`, the TGI in test [1], in test [2], in [4], in test [5], in test [6] and in test [7] was more than 100 µM each time. In addition, the TGI in test [8], in test [9], in test [10], in [11], in test [12] and in test [13] was more than 100 µM each time.

Take `CCN(C(=O)N[C@H](C(=O)N[C@@H](C)C(=O)OC)C(C)C)c1ccccc1`: the TGI in [1] is more than 100 µM; in test [2], more than 100 µM; in [3], more than 100 µM; in test [4] it was 78.6 µM; in test [5], more than 100 µM; in test [6], more than 100 µM. The TGI was 33 µM in test [7]; more than 100 µM in test [8]; more than 100 µM in test [9]; 98.6 µM in [10]; 92.4 µM in [11]; more than 100 µM in test [12]. Further, the TGI is more than 100 µM in test [13] and 55.7 µM in test [14].

In the case of `COC(=O)C1=C(C)N2[C@H](C(=O)O)CS[C@@]2(C)[C@H](C(=O)OC)[C@H]1c1cccc([N+](=O)[O-])c1`, the TGI in test [1], in test [2], in test [3], in test [4], in test [5] and in test [6] was more than 100 µM in each case. The TGI in test [7], in test [8], in [9], in test [10], in [11] and in test [12] was more than 100 µM in each case. The TGI in [13] and in [14] was more than 100 µM in each case.

In the case of `CC1=C(C(=O)NNC(=O)CC#N)CC(C(=O)NNC(=O)CC#N)=C(C)N1`, the TGI in test [1], in test [2], in test [3], in test [4], in test [5] and in test [6] was more than 100 µM throughout. In addition, the TGI in test [7], in test [8], in test [9], in [10], in [11] and in test [12] was more than 100 µM in each case. The TGI in test [13] was more than 100 µM.

Consider `O=CN(O)CC(=O)O`, for which the TGI in test [1], in test [2], in test [3], in test [4], in test [5] and in [6] was more than 100 µM each time. Also, the TGI in [7], in test [8], in [9], in test [10], in [11] and in [12] was more than 100 µM throughout. Further, the total growth inhibition concentration (TGI) in test [13] and in [14] was more than 100 µM throughout.

Turning to `CC(C)(C)OC(=O)c1ccc(NCc2cc(O)ccc2O)cc1`, the TGI in [1] amounted to 6.9 µM; in [2], 14.5 µM; in test [3], 33.7 µM; in test [4] it was 3.4 µM; in [5], 16.8 µM; in [6], 3.35 µM. Besides, the TGI in test [7] is 22.1 µM; in test [8], 3.46 µM; in [9], 17.3 µM; in test [10], 6.07 µM; in test [11], 5.38 µM; in test [12], 2.51 µM. The values for the TGI in test [13] and in test [14] were 29.3 µM and 15.9 µM, respectively.

For the molecule `C/C(=N\Nc1nc2ccccc2s1)c1cccnn1`, the TGI was 60 µM in [1]; more than 100 µM in test [2]; more than 100 µM in test [3]; 14.3 µM in test [4]; 20.2 µM in test [5]; 84.5 µM in [6]. Further, the TGI in test [7] was 89.9 µM; in [8], 17 µM; in test [9] it was 20.1 µM; in test [11], more than 100 µM; in test [12], 71.2 µM; in test [13], 7.2 µM. The molecule also displayed a TGI in test [14] of 20 µM.

Turning to `Cc1cn(C2CC(OC(c3ccccc3)(c3ccccc3)c3ccccc3)C(COC(c3ccccc3)(c3ccccc3)c3ccccc3)O2)c(=O)[nH]c1=O` (centres undefined), the TGI in test [1] is 98.4 µM; in test [2] it was more than 100 µM; in test [3], more than 100 µM; in test [4] it was 83.6 µM; in test [6], more than 100 µM; in test [7], more than 100 µM. Also, the TGI in test [8], in test [9], in test [10], in test [11], in test [12] and in test [13] was more than 100 µM each time. Besides, in test [14], the TGI was more than 100 µM.

Consider `O=c1oc2ccccc2c2nc3ccccc3cc12`, for which the TGI was more than 100 µM in [1]; more than 100 µM in test [2]; more than 100 µM in test [3]; 90.1 µM in test [4]; more than 100 µM in test [5]; 91.3 µM in test [6]. The TGI is more than 100 µM in test [7]; more than 100 µM in [8]; more than 100 µM in test [10]; 80.4 µM in test [11]; more than 100 µM in test [12]; more than 100 µM in test [13]. Also, the TGI in [14] is more than 100 µM.

In the case of `NS(=O)(=O)c1nnc(NSc2ccc([N+](=O)[O-])cc2)s1`, the TGI in test [1], in test [2], in test [4], in [5], in [6] and in test [7] was more than 100 µM each time. The TGI in [8], in [9], in test [10], in test [11], in [12] and in test [13] was more than 100 µM in each case. The molecule also came in with a TGI in test [14] of more than 100 µM.
